Test results reported in patent US11345707B2, “Atropisomerism for increased kinase inhibitor selectivity” (SAN DIEGO STATE UNIVERSITY RESEARCH FOUNDATION, priority 2015, dated 2022).

How the values were obtained:
[1] = Experimental measurement of the barriers to rotation (racemization followed by chiral HPLC); type: physicochemical
Description: The enantiomerically enriched analogues were then dissolved in ethanol and placed in a sealed 2-dram vial and heated under constant temperature on an aluminum block. At each time point, an aliquot of the mixture was removed and quenched in an HPLC vial containing ice cold 80:20 hexanes:ethanol. […] The timepoint and enantiomeric excess (ee) data was then plotted in order to determine an observed rate constant, kobs, at the corresponding temperature. The barrier to rotation was then calculated using the relationship of kracemization=2*kenantiomerization and then substituted into the Gibbs Free Energy Equation:
[formula] where h=Planck Constant, kb=Boltzmann Constant, T=Temp. (K), R=Gas Constant.

[2] = system: panel of tyrosine kinases; test: Kinase inhibitor profiling across a panel of tyrosine kinases (Z′-LYTE), selectivity score; type: biochemical
Description: To analyze each analog's selectivity across the panel we turned to selectivity scores (Davis et al., Nat. Biotechnol. 2011, 29, 1046-51), simply the number of kinases inhibited above a certain threshold divided by the number of kinases evaluated. […] For example at 1000 nM 2e-(R) yielded an S(40%) of 0.11 while 2e-(S) gave an S(40%) of 0.16. […] Differences in selectivity between 2e-(R) and 2e-(S) at 5000 nM (4.5 times the IC50 of 2e-(S) toward Src) and for 5 at 1000 nM (6.25 times the IC50 of 5 toward Src) can be viewed graphically across tyrosine kinases (FIG. 3). Importantly, similar trends were also observed across each of the atropisomeric series tested.
All samples were sent out to Life Technologies to obtain kinase inhibition data. A brief description of the assays and analyses are included below.
Assay Theory (SelectScreen® Kinase Profiling Services (Life Technologies, Madison, Wis. USA). The Z′-LYTE® biochemical assay employs a fluorescence-based, coupled-enzyme format and is based on the differential sensitivity of phosphorylated and non-phosphorylated peptides to proteolytic cleavage. The peptide substrate is labeled with two fluorophores—one at each end—that make up a FRET pair.
In the primary reaction, the kinase transfers the gamma-phosphate of ATP to a single tyrosine, serine or threonine residue in a synthetic FRET-peptide. In the secondary reaction, a site-specific protease recognizes and cleaves non-phosphorylated FRET-peptides. Phosphorylation of FRET-peptides suppresses cleavage by the Development Reagent. Cleavage disrupts FRET between the donor (i.e., coumarin) and acceptor (i.e., fluorescein) fluorophores on the FRET-peptide, whereas uncleaved, phosphorylated FRET-peptides maintain FRET. A ratiometric method, which calculates the ratio (the Emission Ratio) of donor emission to acceptor emission after excitation of the donor fluorophore at 400 nm, is used to quantitate reaction progress, as shown in the equation below: […]
A significant benefit of this ratiometric method for quantitating reaction progress is the elimination of well-to-well variations in FRET-peptide concentration and signal intensities. As a result, the assay yields very high Z′-factor values (>0.7) at a low percent phosphorylation. Both cleaved and uncleaved FRET-peptides contribute to the fluorescence signals and therefore to the Emission Ratio. The extent of phosphorylation of the FRET-peptide can be calculated from the Emission Ratio. The Emission Ratio will remain low 1f the FRET-peptide is phosphorylated (i.e., no kinase inhibition) and will be high 1f the FRET-peptide is non-phosphorylated (i.e., kinase inhibition).
Both cleaved and uncleaved FRET-peptides contribute to the fluorescence signals and therefore to the Emission Ratio. The extent of phosphorylation of the FRET-peptide can be calculated from the Emission Ratio. The Emission Ratio will remain low 1f the FRET-peptide is phosphorylated (i.e., no kinase inhibition) and will be high 1f the FRET-peptide is non-phosphorylated (i.e., kinase inhibition).

t1/2 to Racemization at 37° C. [1] [days] | S(40%): number of kinases inhibited greater than 40% divided by number of kinases tested (including Src) ([2]; 200 nM) | activity for the tyrosine kinase panel tested ([2]; 200 nM and 1000 nM) | Compound | S(40%): number of kinases inhibited greater than 40% divided by number of kinases tested (including Src) ([2]; 1000 nM) | S(40%): number of kinases inhibited greater than 40% divided by number of kinases tested (including Src) ([2]; 5000 nM)
18 |  |  | COc1ccc(Cl)c(-c2c(Cl)n(C3CCCC3)c3ncnc(N)c23)c1 (racemic) [Compound 1e, 6-chloro-5-(2-chloro-5-methoxyphenyl)-7-cyclopentyl-7H-pyrrolo[2,3-d]pyrimidin-4-amine] |  | 
 |  |  | COc1ccc(Cl)c(-c2c(Cl)n(C(C)(C)C)c3ncnc(N)c23)c1 (single isomer, unassigned) [2e-(R), 7-(tert-butyl)-6-chloro-5-(2-chloro-5-methoxyphenyl)-7H-pyrrolo[2,3-d]pyrimidin-4-amine] | 0.11 | 0.44
 |  |  | COc1ccc(Cl)c(-c2c(Cl)n(C(C)(C)C)c3ncnc(N)c23)c1 (single isomer, unassigned) [2e-(S), 7-(tert-butyl)-6-chloro-5-(2-chloro-5-methoxyphenyl)-7H-pyrrolo[2,3-d]pyrimidin-4-amine] | 0.16 | 0.61
 | 0.44 | near pan activity | COc1cccc(-c2cn(C(C)(C)C)c3ncnc(N)c23)c1 [Compound 5, reference compound] | 0.72 | 
